Test results taken from patent publication US5989521A, “Method for augmenting a decreased level of reduced glutathione in the lung” (The United States of America as represented by the …, priority 1991, dated 1999).
Where two headings read alike, the source gives them in different places.

Key:
[1] = Description: (§1) Ten individuals with IPF (6 male, 4 female, 46±3 yr) defined by standard clinical criteria (Crystal, R. G. et al. (1984) N. Engl. J. Med. 310: 154-166, and 310: 235-244; Turner-Warwick, M. et al. (1980) Thorax. 35: 171-180) received aerosolized GSH; 19 normal nonsmokers (14 male, 5 female, 36±3 yr) (Buhl, R. et al. (1989) Lancet. 2: 1294-1298) served as controls for GSH levels. […] An aerosol of 600 mg GSH was administered every 12 hr for 3 days. Respiratory ELF, obtained by lavage, was evaluated before therapy, and 1 hr after the first or last (sixth) aerosol, and plasma before and 1 hr after the last aerosol. Total glutathione, oxidized glutathione (GSSG) and reduced glutathione (GSH) levels in ELF and plasma were quantified as previously described (Buhl, R. et al. (1990) Proc. Natl. Acad. Sci. USA. 87:4063-4067; Buhl, R. et al. (1989) Lancet. 2: 1294-1298). Spontaneous O2^- release from adherent alveolar macrophages was measured by the reduction of ferricytochrome C (Buhl, R. et al. (1990) Proc. Natl. Acad. Sci. USA. 87:4063-4067). All data are presented as mean ± standard error of the mean. The two-tailed Student's t-test was used to compare ELF glutathione levels in normal and IPF individuals and the results presented as exact p values and degrees of freedom (df). The Wilcoxon paired nonparametric test was used to compare pre- and post-aerosol therapy ELF GSH levels and spontaneous O2^- release by alveolar macrophages, and the results presented as exact p values.
alveolar macrophages = conditions: 600 mg twice daily for 3 days, 1 hr after last dose, all individuals (p=0.02)
Description: as §1

[2] = preparation reconstituted in 0.9% saline; cited from earlier work
[3] = in vivo
Description: Study Population. The study population included 13 male and 1 female HIV-seropositive individuals (average age 32±2 yr)(all data are presented as mean ± standard error of the mean; all statistical comparisons were made using the two-tailed Student's t-test). The diagnosis of HIV infection was confirmed by ELISA and Western blot analysis. All belonged to defined risk groups (13 homosexuals, 1 with heterosexual contact with an infected partner). None were smokers, 9 were untreated, and 5 were receiving azidothymidine, and two were receiving once monthly pentamidine by aerosol.
Biologic Samples. Venous plasma and bronchoalveolar lavage fluid were obtained by standard technique (Saltini, C. et al. (1984) Am Rev Resp Dis 130:650-658). Portions of the lavage fluid were taken for glutathione assays (see below), cell counts (total cell and CD4+ and CD8+ subtypes), and for cytocentrifuge preparations for differential counts. The cells were pelleted and the supernatant was used to quantify the amount of ELF recovered using the urea method (Rennard, S.I. et al. (1986) J Appl Physiol 60:532-538).
Study Design. […]
Glutathione Levels and Form. Glutathione levels in venous plasma, and bronchoalveolar lavage fluid were quantified with minor modifications of standard methods, as previously described (Buhl, R. et al (1989) Lancet 2:1294-1298).

[4] = intravenous administration; cited from earlier work
[5] = tested on: cytotoxic T-lymphocyte cell line CTLL-2; conditions: 0.3 units/ml IL-2
Description: (§2) T-lymphocyte Proliferation Assays. Cell proliferation in the presence of pre-aerosol compared to post-aerosol concentrations of reduced glutathione was tested on the cytotoxic T-lymphocyte cell lines CT-4R and CTLL-2 (Liang, C-M. et al. (1989) J Biol Chem 264:13519-13523). In 96-well flat bottom plates were placed 50,000 cells of the respective cell lines, suspended in 200 μl Dulbecco's Modified Eagle Medium with 10% fetal calf serum, with either 150 μM or 280 μM reduced glutathione added. The IL-2 dependent cell line CTLL-2 had 0.3 units/ml IL-2 (Genzyme) added in each well. After 18 hr culture in a 10% CO2 incubator at 37° C., 0.5 μCi of ^3 H-thymidine was added for 4 hr, followed by harvesting of cells onto glass fiber filters and scintillation counting for 1 minute. All proliferation assays were done in triplicate.

[6] = tested on: cytotoxic T-lymphocyte cell line CT-4R
Description: as §2

Remark: listed apart in the source
[7] = in vivo; remark: listed apart in the source
Description: To evaluate possible toxicity of the glutathione aerosol, symptoms, physical examination, routine blood studies, chest x-ray, electrocardiogram, renal function, arterial blood gases, and tests of pulmonary function (forced vital capacity, forced expiratory volume in one second, total lung capacity, diffusing capacity) were followed carefully throughout the study. In addition, visual examination of the respiratory mucosa and analysis of differential cell count in bronchoalveolar lavage fluid were performed before the first aerosol and after administration of the last aerosol.
Study Design. Venous plasma and bronchoalveolar lavage fluid were obtained before GSH administration. An aerosol of 600 mg GSH in 4 ml of saline was then administered over a 25 min period twice a day for three days. Following the last aerosol, venous plasma and bronchoalveolar lavage fluid were again obtained at intervals up to 3 hr after the last aerosol. All measurements were carried out in duplicate.

N[C@@H](CCC(=O)N[C@@H](CS)C(=O)NCC(=O)O)C(=O)O [GSH, L-γ-glutamyl-L-cysteinyl-glycine]
adverse effects associated with GSH aerosol administration ([1]; 600 mg every 12 hr for 3 days): No adverse effects | ELF oxidized glutathione compared to baseline ([1]; 600 mg twice daily for 3 days, 1 hr after last dose, all individuals (p=0.02)): significant increase | total glutathione in ELF versus pre-therapy ([1]; 1 hr after the first aerosol of 600 mg GSH (p=0.005)): increased | plasma glutathione levels following aerosolization ([1]; 1 hr after the last aerosol (p=0.59)): did not change | average level of total glutathione in ELF versus pre-therapy ([1]; after repeated dosing for 3 days, 1 hr after last aerosol (p=0.55)): higher than the pre-therapy level, but not significantly so | spontaneous O2- release by alveolar macrophages (alveolar macrophages): decrease | effect of aerosolization on the form of the GSH [2]: did not alter the form | oxidized glutathione as percentage of total glutathione in ELF [3]: 44±18% | serum half-life [4]: < 2 min | proliferation (3H-thymidine incorporation) ([5]; CTLL-2, 150 μM reduced glutathione): 5077±69 cpm | proliferation (3H-thymidine incorporation) ([5]; CTLL-2, 280 μM reduced glutathione): 5792±219 cpm | proliferation (3H-thymidine incorporation) ([6]; 150 μM reduced glutathione (pre-therapy concentration)): 7478±550 cpm | proliferation (3H-thymidine incorporation) ([6]; 280 μM reduced glutathione (post-therapy concentration)): 10,752±376 cpm | mass median aerodynamic diameter of the aerosol droplets (150 mg/ml GSH in 0.9% NaCl, nebulizer at 40 psi, laser particle-size analysis): 2.8 μm | glutathione in the reduced form (in the aerosolized droplets): 97.0±0.6% | glutathione in the reduced form (pre-aerosol preparations): 98.2±0.1% | inflammation of the lower respiratory tract [7]: did not result in inflammation | physical examination and all clinical studies [7]: remained stable | pulmonary function tests and arterial blood gases [7]: unchanged
